According to publication PMC11703096 (PLOS ONE, 2025):

Key:
[1] = target: T1, A32WT (vaccinia virus A32, putative genome packaging ATPase) (Vaccinia virus WR, UniProt P68615, K31A); details: read-out: A32K31A / - / DNA
T1 construct: gene OPG160

[2] = target: T2, A32WT (vaccinia virus A32, putative genome packaging ATPase) (Vaccinia virus WR, UniProt P68615, L234K/Q237A); details: read-out: A32LL234K_Q237A / - / DNA
T2 construct: gene OPG160

native gel or EMSA = target: the molecule itself; experiment: native gel or EMSA

Nc1ncnc2c1ncn2[C@@H]1O[C@H](COP(=O)(O)OP(=O)(O)OP(=O)(O)O)[C@@H](O)[C@H]1O [ATP]
Km [1]: 0.2 µM | Km [2]: 0.66 µM

B1: vaccinia virus A32 protein with an N-terminal thioredoxin tag and a C-terminal hexahistidine tag (A32WT) (enzyme)
chain: MNCFQEKQFSRENLLKMPFRMVLTGGSGSGKTIYLLSLFSTLVKKYKHIFLFTPVYNPDYDGYIWPNHINFVSSQESLEYNLIRTKSNIEKCIAVAQNHKKSAHFLLIFDDVGDKLSKCNTLIEFLNFGRHLNTSIILLCQTYRHVPILGRANITHFCSFNISISDAENMLRSMPVKGKRKDILNMLNMIQTARSNNRLAIIIEDSVFCEGELRICTDTADKDVIEQKLNIDILVNQYSHMKKNLNAILESKKTKLCNSDQSSSSKNVSS
binding result (native gel or EMSA): binds
